The data set deals with vascular network structure of 3D hepatic model (PXB cells, SEC, Lx2).

Data on one molecule can be found in patent publication US12646341B2, “Image processing method and image processing program” (TOPPAN Inc., priority 2020, dated 2026).

From the text: The vascular network structure of the cell structure becomes visible by subjecting the 3D hepatic model to immunostaining, fluorescent modification, or a combination of immunostaining and fluorescent modification.
The preparation process may include, for example, a first collection process of collecting cells other than fresh human hepatocytes isolated from chimeric mice with human hepatocytes (PXB cell) shown in Table 1, a second collection process of collecting PXB cells, a mixture obtaining process of obtaining a cell mixture, a suspension obtaining process of obtaining a cell suspension, a gel formation process of forming a fibrin gel, and a model obtaining process of obtaining a 3D model.
In the mixture obtaining process, for example, the cells collected in the first collection process and the second collection process are mixed so that a total quantity of cells per well becomes 30,000 cells at the cell ratios of PXB cells, SEC and Lx2 in the tissue of 65%, 25% and 10%, respectively, to obtain a cell mixture (an example of cell structure). The cell mixture contains multiple types of cells including vascular endothelial cells and other stromal cells.
In the suspension obtaining process, first, for example, a heparin-collagen solution is prepared by mixing equal amounts of a 1.0 mg/ml heparin solution (buffer: 100 mM Tris-HCL) and a 0.3 mg/ml collagen solution (buffer: 5 mM acetate). Then, 100 μL of the heparin-collagen solution prepared as described above is added to each cell mixture obtained in the mixture obtaining process, and the mixture is suspended until the cells are no longer visually observable and then centrifuged (400 g×2 min) to obtain a viscous solution. After the supernatant is removed from the viscous solution, a solvent is added to the viscous solution so that the final volume of the viscous solution becomes the solution amount of [the number of wells to be seeded]×2 μL. Thus, a cell suspension is obtained. […]

As for `O=P1(N(CCCl)CCCl)NCCCO1` (stereo not drawn) [cyclophosphamide], the “length of the vascular network structure in the captured images” value (FIGS. 9A-9F, dosage concentration 0 M, 143 M, 430 M, 1430 μM, 4300 μM and 14300 M) is given as “the higher the dosage concentration of cyclophosphamide, the smaller the length of the vascular network structure”. Besides, the “skeleton length in the extracted images” value (FIGS. 9G-9L, dosage concentration 0 M, 143 M, 430 M, 1430 μM, 4300 μM and 14300 M) is “the higher the dosage concentration of cyclophosphamide, the smaller the skeleton length”. In addition, the “shape of the vascular network structure (skeleton length and number of branch points in the extracted images)” value (FIGS. 10A and 10B, against dosage concentration) is “the shape of the vascular network structure significantly changes and the vascular network structure decreases when the dosage concentration of cyclophosphamide exceeds a certain level”.
